Test results as given in publication PMC7948982, “Dissecting the low catalytic capability of flavin-dependent halogenases” (The Journal of Biological Chemistry, 2020).

Key:
[1] = target: T1, Thal (tryptophan 6-halogenase) (Streptomyces albogriseolus, UniProt A1E280); experiment: X-ray crystal structure, […] Å; type: binding; conditions: apo crystals soaked with FAD and Trp for 7 days, 25 °C
T1 construct: recombinant, E. coli BL21(DE3), pET28b; tag residues seen in 7CU1; two protomers per asymmetric unit; GFP11 C-terminal tag only in the mutant library screen
T1 sequence (A1E280 whole entry): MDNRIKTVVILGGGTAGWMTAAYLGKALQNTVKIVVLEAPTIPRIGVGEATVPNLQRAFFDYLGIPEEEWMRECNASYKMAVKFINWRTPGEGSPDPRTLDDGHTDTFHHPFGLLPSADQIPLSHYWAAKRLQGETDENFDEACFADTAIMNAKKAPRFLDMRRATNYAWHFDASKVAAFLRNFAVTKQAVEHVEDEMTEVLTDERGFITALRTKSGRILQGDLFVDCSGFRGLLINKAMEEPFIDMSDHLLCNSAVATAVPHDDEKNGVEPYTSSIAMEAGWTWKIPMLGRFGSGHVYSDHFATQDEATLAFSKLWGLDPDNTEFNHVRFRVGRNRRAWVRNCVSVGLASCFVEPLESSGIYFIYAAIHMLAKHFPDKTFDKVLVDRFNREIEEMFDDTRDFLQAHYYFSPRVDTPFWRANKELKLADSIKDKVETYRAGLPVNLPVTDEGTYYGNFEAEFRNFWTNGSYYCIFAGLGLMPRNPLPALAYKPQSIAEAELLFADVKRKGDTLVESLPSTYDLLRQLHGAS

[2] = target: T1, Thal (tryptophan 6-halogenase); experiment: X-ray crystal structure, […] Å; type: binding; conditions: crystal soak with FAD, tryptophan and dithionite; flavin site
[3] = target: T2, Thal (tryptophan 6-halogenase) (Streptomyces albogriseolus, UniProt A1E280, K79T); experiment: stopped-flow absorbance at […] and […] nm, C4a-hydroperoxyflavin formation; type: biochemical; conditions: 30 μM enzyme, 15 μM FADH-, air-saturated buffer; 20 mM potassium phosphate pH 7.2, 25 °C
T2 construct: recombinant, E. coli BL21(DE3), pET28b; tag residues seen in 7CU1; two protomers per asymmetric unit; GFP11 C-terminal tag only in the mutant library screen
T2 sequence (A1E280 whole entry K79T): as the sequence (A1E280 whole entry) above, with K79T counted along it

[4] = target: T3, PyrH (tryptophan 5-halogenase) (Streptomyces rugosporus, UniProt A4D0H5); experiment: stopped-flow fluorescence, C4a-hydroxyflavin formation; type: biochemical; conditions: with C4a-hydroperoxyflavin enzyme; pH 7.2, 25 °C
T3 construct: construct and source details not given
T3 sequence (A4D0H5 whole entry): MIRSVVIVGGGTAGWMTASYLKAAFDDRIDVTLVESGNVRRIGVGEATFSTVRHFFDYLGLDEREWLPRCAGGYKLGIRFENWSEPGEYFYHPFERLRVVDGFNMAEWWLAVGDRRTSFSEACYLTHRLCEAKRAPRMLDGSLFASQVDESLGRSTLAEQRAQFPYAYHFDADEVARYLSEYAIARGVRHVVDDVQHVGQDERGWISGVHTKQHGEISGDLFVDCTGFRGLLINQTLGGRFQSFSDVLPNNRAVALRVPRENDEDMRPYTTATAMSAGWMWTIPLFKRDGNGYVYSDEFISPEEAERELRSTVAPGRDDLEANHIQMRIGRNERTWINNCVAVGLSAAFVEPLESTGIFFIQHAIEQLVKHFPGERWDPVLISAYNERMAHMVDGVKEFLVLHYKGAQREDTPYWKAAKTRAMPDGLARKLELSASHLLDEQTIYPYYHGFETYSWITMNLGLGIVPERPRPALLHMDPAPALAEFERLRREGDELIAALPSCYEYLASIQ

[5] = target: T4, PrnA (tryptophan 7-halogenase) (Pseudomonas fluorescens, UniProt P95480); experiment: as above; type: biochemical; conditions: with C4a-hydroperoxyflavin enzyme; pH 7.2, 25 °C
T4 construct: construct and source details not given
T4 sequence (P95480 whole entry): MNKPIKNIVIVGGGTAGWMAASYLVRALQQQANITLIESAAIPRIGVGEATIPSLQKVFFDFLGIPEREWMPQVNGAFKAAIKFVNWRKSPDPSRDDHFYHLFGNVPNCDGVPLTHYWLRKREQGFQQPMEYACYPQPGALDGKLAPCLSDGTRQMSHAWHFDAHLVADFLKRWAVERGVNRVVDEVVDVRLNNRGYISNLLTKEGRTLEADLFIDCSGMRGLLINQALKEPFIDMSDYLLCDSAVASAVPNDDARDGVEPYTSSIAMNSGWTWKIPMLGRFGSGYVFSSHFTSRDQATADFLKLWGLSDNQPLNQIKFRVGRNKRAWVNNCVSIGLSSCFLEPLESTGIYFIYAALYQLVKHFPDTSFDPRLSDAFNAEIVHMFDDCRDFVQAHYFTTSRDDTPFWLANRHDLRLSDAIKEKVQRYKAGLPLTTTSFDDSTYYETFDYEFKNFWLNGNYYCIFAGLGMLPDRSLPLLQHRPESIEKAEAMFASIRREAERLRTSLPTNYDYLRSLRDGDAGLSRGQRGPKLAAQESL

[6] = target: T1, Thal (tryptophan 6-halogenase); experiment: stopped-flow fluorescence, kobs of C4a-hydroxyflavin formation versus halide; type: biochemical; conditions: binding to the C4a-hydroperoxyflavin form of the enzyme; two-step model; 20 mM potassium phosphate pH 7.2, 25 °C
From the text: stopped-flow fluorescence, kobs of C4a-hydroxyflavin formation versus halide on Thal (tryptophan 6-halogenase)

[7] = target: T1, Thal (tryptophan 6-halogenase); experiment: X-ray crystal structure, […] Å; type: binding; conditions: apo crystals soaked, 2 days, 25 °C; tryptophan site
[8] = target: T5, (Pseudomonas fluorescens, UniProt P95480); experiment: multiple turnover halogenation; type: biochemical
T5 construct: gene prnA; construct and source details not given
T5 sequence (P95480 whole entry): as above

SMILES: Nc1ncnc2c1ncn2[C@@H]1O[C@H](COP(=O)(O)O)[C@@H](O)[C@H]1O [AMP]
- X-ray crystal structure, 1.91 Å ([1]; flavin site crystal, AMP not added to the soak): Thal:FAD:AMP (PDB code 7CU1) were solved with two protomers per asymmetric unit (asu).

SMILES: Cc1cc2c(cc1C)N(C[C@H](O)[C@H](O)[C@H](O)COP(=O)(O)OP(=O)(O)OC[C@H]1O[C@@H](n3cnc4c(N)ncnc43)[C@H](O)[C@@H]1O)c1[nH]c(=O)[nH]c(=O)c1N2 [FADH^−]
- X-ray crystal structure, 2.40 Å [2]: Clear electron density for FADH^− was observed in both protomers.
- stopped-flow absorbance at 380 and 450 nm, C4a-hydroperoxyflavin formation [3]: These data indicate that Lys79Thr could still form C4aOOH-FAD

SMILES: Cc1cc2nc3c(=O)[nH]c(=O)nc-3n(C[C@H](O)[C@H](O)[C@H](O)COP(=O)(O)OP(=O)(O)OC[C@H]3O[C@@H](n4cnc5c(N)ncnc54)[C@H](O)[C@@H]3O)c2cc1C [FAD]
- X-ray crystal structure, 1.91 Å ([1]; flavin site): Thal:FAD:AMP (PDB code 7CU1) were solved with two protomers per asymmetric unit (asu).

SMILES: I [I^−]
- stopped-flow fluorescence, C4a-hydroxyflavin formation [4]: PrnA and PyrH could also react with I^− to form HOI and C4aOH-FAD
- stopped-flow fluorescence, C4a-hydroxyflavin formation [5]: PrnA and PyrH could also react with I^− to form HOI and C4aOH-FAD
- Kd [6]: 64 ± 21 µM

SMILES: N[C@@H](Cc1c[nH]c2ccccc12)C(=O)O [tryptophan]
- X-ray crystal structure, 1.95 Å [7]: we solved the structure of the Thal:TRP complex (PBD code 7CU0
- multiple turnover halogenation [8]: multiple turnover reactions of Thal were carried out and compared with the reactions of PrnA
